Measurements as given in article PMC12406203 (Journal of Medicinal Chemistry, 2025).

Assays:
Test in all cases: KINOMEscan
Assay type in all cases: binding
PKACα = target: T1, PKACα (Homo sapiens, UniProt P17612)
T1 construct: purchased Eurofins DiscoverX, LLC; host or cells: E. coli BL21-derived host (T7 phage) or HEK-293
Experimental: (§1) The kinase inhibition profile of compounds 94 and 95 was assessed against 103 protein kinases by Eurofins DiscoverX, LLC., using the KINOMEscan assay. Kinase-tagged T7 phage strains were grown in parallel in 24-well blocks in an E. coli host derived from the BL21 strain. E. coli were grown to log-phase and infected with T7 phage from a frozen stock (multiplicity of infection = 0.4) and incubated with shaking at 32 °C until lysis (90–150 min). The lysates were centrifuged (6000g) and filtered (0.2 μm) to remove cell debris. The remaining kinases were produced in HEK-293 cells and subsequently tagged with DNA for qPCR detection. […] The liganded beads were blocked with excess biotin and washed with blocking buffer (SeaBlock (Pierce), 1% BSA, 0.05% Tween 20, 1 mM DTT) to remove unbound ligand and to reduce nonspecific phage binding. […] Test compounds were prepared as 100× stocks in 100% DMSO and directly diluted into the assay. All reactions were performed in polypropylene 384-well plates in a final volume of 0.02 mL. […] The kinase concentration in the eluates was measured by qPCR.
(§2) The compound(s) were screened at the concentration(s) requested, and results for primary screen binding interactions are reported as RA (%), where lower numbers indicate stronger hits in the matrix. RA=(testcompoundsignal−PCsignal/NCsignal−PCsignal)×100

p38δ = target: T2, p38δ (Homo sapiens, UniProt O15264)
T2 construct: purchased Eurofins DiscoverX, LLC; host or cells: E. coli (BL21-derived, T7 phage) or HEK-293
T2 sequence (O15264 1-365): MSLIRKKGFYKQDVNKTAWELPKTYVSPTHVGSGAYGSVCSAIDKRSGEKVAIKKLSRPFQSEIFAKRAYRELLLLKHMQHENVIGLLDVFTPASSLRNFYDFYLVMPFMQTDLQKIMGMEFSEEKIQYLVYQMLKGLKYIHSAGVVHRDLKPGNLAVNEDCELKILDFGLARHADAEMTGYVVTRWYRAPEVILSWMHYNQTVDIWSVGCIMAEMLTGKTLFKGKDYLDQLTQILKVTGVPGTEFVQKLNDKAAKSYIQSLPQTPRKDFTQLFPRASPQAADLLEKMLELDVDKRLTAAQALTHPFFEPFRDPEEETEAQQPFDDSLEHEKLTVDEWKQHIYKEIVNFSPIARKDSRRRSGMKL
Experimental: as §1, §2

MEK1 = target: T3, MEK1 (Homo sapiens, UniProt Q02750)
T3 construct: purchased Eurofins DiscoverX, LLC; host or cells: E. coli (BL21-derived, T7 phage) or HEK-293
Experimental: as §1, §2

LCK = target: T4, LCK (Homo sapiens, UniProt P06239)
T4 construct: purchased Eurofins DiscoverX, LLC; host or cells: E. coli (BL21-derived, T7 phage) or HEK-293
Experimental: as §1, §2

RIOK2 = target: T5, RIOK2 (Homo sapiens, UniProt Q9BVS4)
T5 construct: purchased Eurofins DiscoverX, LLC; host or cells: E. coli BL21-derived host (T7 phage) or HEK-293
Experimental: as §1, §2

AURKB = target: T6, AURKB (Homo sapiens, UniProt Q96GD4)
T6 construct: purchased Eurofins DiscoverX, LLC; host or cells: E. coli BL21-derived (T7 phage) or HEK-293
Experimental: as §1, §2

NLK = target: T7, NLK (Homo sapiens, UniProt Q9UBE8)
T7 construct: purchased Eurofins DiscoverX, LLC; host or cells: E. coli (BL21-derived, T7 phage) or HEK-293
T7 sequence (Q9UBE8 1-527): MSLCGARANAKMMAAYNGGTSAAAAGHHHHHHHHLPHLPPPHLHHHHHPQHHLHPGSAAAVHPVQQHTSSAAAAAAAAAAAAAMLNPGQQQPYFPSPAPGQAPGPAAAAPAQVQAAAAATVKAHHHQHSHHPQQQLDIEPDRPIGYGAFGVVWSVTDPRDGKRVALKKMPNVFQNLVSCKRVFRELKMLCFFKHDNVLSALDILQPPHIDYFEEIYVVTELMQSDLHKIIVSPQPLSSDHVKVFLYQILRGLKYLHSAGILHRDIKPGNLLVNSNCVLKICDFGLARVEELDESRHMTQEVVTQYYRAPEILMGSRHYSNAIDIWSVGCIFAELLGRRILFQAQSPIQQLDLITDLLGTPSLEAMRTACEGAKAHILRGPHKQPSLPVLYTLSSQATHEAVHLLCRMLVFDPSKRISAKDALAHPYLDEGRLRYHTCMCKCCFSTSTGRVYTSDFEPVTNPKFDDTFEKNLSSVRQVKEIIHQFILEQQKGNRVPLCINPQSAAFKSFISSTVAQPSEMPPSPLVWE
Experimental: as §1, §2

EPHA2 = target: T8, EPHA2 (Homo sapiens, UniProt P29317)
T8 construct: purchased Eurofins DiscoverX, LLC; host or cells: E. coli (T7 phage) or HEK-293
Experimental: as §1, §2

T3 sequence (Q02750 whole entry): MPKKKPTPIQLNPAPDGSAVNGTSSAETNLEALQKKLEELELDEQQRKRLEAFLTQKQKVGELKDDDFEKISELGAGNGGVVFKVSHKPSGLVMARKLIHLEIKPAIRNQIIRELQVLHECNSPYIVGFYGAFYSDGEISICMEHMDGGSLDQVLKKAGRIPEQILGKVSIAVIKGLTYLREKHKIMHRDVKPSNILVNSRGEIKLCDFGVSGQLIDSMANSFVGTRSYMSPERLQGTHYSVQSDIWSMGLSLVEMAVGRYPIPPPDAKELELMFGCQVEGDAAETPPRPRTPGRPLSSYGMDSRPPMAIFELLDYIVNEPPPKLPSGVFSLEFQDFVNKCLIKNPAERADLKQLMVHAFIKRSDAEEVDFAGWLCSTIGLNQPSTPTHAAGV
T4 sequence (P06239 whole entry): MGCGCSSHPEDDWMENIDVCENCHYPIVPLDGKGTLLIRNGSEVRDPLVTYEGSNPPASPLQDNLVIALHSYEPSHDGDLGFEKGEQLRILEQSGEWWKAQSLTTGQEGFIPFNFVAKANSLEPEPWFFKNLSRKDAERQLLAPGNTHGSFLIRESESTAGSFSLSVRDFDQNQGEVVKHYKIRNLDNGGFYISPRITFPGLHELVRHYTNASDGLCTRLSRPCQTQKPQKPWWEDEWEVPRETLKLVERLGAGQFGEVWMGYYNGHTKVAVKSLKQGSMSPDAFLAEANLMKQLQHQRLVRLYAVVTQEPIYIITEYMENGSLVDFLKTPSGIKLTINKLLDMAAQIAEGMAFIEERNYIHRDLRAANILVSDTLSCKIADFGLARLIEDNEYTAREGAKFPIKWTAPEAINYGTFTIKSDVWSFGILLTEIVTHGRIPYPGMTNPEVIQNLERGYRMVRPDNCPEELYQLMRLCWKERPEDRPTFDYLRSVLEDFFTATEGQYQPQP
T8 sequence (P29317 24-976): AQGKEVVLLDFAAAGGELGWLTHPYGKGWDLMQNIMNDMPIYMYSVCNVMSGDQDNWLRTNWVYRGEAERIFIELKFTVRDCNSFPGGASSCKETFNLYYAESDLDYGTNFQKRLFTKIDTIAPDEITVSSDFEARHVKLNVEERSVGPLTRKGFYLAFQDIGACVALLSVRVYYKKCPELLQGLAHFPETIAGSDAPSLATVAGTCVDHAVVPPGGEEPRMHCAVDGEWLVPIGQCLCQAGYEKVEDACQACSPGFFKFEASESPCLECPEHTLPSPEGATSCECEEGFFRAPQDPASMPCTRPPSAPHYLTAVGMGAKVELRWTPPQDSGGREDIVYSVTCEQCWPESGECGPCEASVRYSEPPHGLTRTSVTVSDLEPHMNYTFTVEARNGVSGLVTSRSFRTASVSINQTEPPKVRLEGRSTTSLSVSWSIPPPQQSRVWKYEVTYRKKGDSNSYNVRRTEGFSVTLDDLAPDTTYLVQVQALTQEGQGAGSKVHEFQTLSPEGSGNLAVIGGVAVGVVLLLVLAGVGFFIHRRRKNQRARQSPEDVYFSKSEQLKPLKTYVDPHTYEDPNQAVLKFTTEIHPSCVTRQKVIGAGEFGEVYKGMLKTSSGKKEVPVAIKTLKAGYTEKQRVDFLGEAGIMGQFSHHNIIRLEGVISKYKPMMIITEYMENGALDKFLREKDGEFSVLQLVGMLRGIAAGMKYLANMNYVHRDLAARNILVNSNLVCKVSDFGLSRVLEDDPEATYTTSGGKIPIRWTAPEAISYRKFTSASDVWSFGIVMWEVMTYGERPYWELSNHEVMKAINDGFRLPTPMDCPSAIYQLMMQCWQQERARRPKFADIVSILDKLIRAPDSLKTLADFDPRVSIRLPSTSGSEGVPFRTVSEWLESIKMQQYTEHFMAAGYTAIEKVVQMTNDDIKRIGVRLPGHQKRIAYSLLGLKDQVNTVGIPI
T5 sequence (Q9BVS4 whole entry): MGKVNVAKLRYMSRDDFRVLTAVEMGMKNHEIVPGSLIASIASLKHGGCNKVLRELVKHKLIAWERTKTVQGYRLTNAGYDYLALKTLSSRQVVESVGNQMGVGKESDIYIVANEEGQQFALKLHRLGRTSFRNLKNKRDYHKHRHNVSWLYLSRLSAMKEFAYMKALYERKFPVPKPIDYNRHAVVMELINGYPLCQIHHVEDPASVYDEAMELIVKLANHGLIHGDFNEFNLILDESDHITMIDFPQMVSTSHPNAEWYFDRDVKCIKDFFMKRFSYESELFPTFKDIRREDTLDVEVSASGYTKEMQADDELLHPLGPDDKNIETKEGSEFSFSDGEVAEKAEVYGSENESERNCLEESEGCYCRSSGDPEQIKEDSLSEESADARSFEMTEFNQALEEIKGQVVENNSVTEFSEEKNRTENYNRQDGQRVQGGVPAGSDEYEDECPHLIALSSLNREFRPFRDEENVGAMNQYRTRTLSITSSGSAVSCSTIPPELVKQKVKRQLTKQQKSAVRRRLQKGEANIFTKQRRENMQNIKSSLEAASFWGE
T6 sequence (Q96GD4 whole entry): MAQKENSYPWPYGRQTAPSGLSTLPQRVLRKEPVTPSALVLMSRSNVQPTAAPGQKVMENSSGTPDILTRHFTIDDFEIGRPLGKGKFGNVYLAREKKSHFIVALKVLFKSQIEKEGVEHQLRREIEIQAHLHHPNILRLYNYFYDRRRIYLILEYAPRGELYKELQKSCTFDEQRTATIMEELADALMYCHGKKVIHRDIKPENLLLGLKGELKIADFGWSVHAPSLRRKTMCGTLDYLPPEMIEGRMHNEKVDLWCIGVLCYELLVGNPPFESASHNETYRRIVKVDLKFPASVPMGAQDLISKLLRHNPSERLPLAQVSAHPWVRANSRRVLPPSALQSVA

Compound | RA @ 1000nM (PKACα) [%] | RA @ 10000nM (PKACα) [%] | RA @ 1000nM (p38δ) [%] | RA @ 10000nM (p38δ) [%] | RA @ 1000nM (MEK1) [%] | RA @ 10000nM (MEK1) [%] | RA @ 1000nM (LCK) [%] | RA @ 10000nM (LCK) [%] | RA @ 1000nM (RIOK2) [%] | RA @ 10000nM (RIOK2) [%] | RA @ 1000nM (AURKB) [%] | RA @ 10000nM (AURKB) [%] | RA @ 1000nM (NLK) [%] | RA @ 10000nM (NLK) [%] | RA @ 1000nM (EPHA2) [%] | RA @ 10000nM (EPHA2) [%]
CC(C)Cn1ncc2cc(Cc3ccc(F)cc3F)c(C(=O)NCCN(C)C)cc21 [Compound 94, 5-(2,4-Difluorobenzyl)-N-(2-(dimethylamino)ethyl)-1-isobutyl-1H-indazole-6-carboxamide] | 100 | 96 | 97 | 100 | 98 | 74 | 100 | 97 | 85 | 92 | 84 | 68 | 100 | 98 | 97 | 100
CN(C)CCNC(=O)c1cc2c(cnn2CC2CCCCC2)cc1Cc1ccc(F)cc1F [Compound 95, 1-(Cyclohexylmethyl)-5-(2,4-difluorobenzyl)-N-(2-(dimethylamino)ethyl)-1H-indazole-6-carboxamide] | 100 | 94 | 100 | 100 | 98 | 100 | 94 | 100 | 88 | 81 | 99 | 71 | 100 | 100 | 100 | 100
